Where no end group is shown, it is not given here.
Key:
LC8 [1] = target: T1, LC8 (Homo sapiens, UniProt Q96FJ2); assay: direct fluorescence polarization titration of labeled BMF peptide with LC8; format: binding; conditions: 50 nM FITC-labeled BMF, PBS, 2 mM TCEP, 0.05% Brij, 25 °C
T1 construct: 6xHis (N); made in house; host or cells: E. coli BL21 (DE3) Rosetta
Protocol: Fluorescence polarization experiments were carried out at 25 °C in PBS supplemented by 2 mM TCEP and 0.05% Brij using a Synergy H4 (BioTek Instruments) plate reader. N-terminally fluorescein 5-isothiocyanate (FITC) labeled, known binding peptide of LC8, BMF (TSQEDKATQTL) was used as a reporter peptide to form LC8-BMF complex and LCA5 was applied to compete the BMF peptide. Briefly, 50 nM labeled BMF peptide was mixed with LC8 in a concentration to achieve 80% saturation, determined by direct titration (12 μM at 80% saturation). Subsequently, the above-mentioned complex was titrated with a two-fold dilution series of competitor LCA5 peptide (DLCTKGVQTME) (start at 500 μM) and the decrease of polarization was recorded. To determine the Kd of the LCA5-peptide-LC8 complex, first the Kd of the BMF-LC8 complex was calculated. The polarization signal recorded at direct titration of BMF peptide with LC8 was plotted against the concentration of LC8. Then the Kd of the BMF-LC8 complex was calculated by the fitting of a direct binding equation in Origin 8. To determinate the Kd of the competitor peptide, the measured polarization was plotted against the concentration of LCA5 peptide in the competitive titration and the data was fitted by the competitive binding equation in Origin 8 where Kd of the BMF-LC8 complex was one of the parameters of the competitive equation. […]

LC8 [2] = target: T1, LC8; conditions: literature, ref (6)-(10) of supplement, cited from earlier work
From the text: According to the standard model of LC8 interactions, the dimeric interface of LC8 presents two interaction sites for partners which also form dimers, implying a 1:1 stoichiometry. Partners with two adjacent binding motifs, like ANA2, follow a 1:2 stoichiometry by binding two LC8[18]. Intriguingly, we observed a 2:1 LCA5:LC8 stoichiometry for the ΔCQS and the ΔVQT mutants, which means that one LC8 dimer binds four LCA5 chains (Supplementary Table S1). A reasonable interpretation is that the native LCA5 is dimeric and thus a pair of LCA5 dimers bind to one dimeric LC8. In such a situation, one i ... || page 10: Composition of complexes Number of LC8 Number of Ratio of LCA5 LC8 binding monomeric binding monomeric LC8 in monomers to LC8 Gene name sites partners in complex complex monomers SWA (6) 1 2 2 1:1 DYNC1I1 (7) 1 2 2 1:1 WDR34-WDR60 3 1+1 6 1:3 (8) ANA2 (9) 2 2 4 1:2 ASCIZ (10) 11 2 22 1:11 sLCA5-WT 2 4 4 1:1 sLCA5-single 1 4 2 2:1 mutants Supplementary Table S1. Stoichiometries of various LC8 binding partners in complex with LC8. Known LC8 binding partners according to literature data always form dimers upon LC8 binding. The stoichiometry is basically 1:1 in case of one LC8 binding sit ...

LC8 [3] = target: T1, LC8; assay: isothermal titration calorimetry, LCA5 peptide injected to LC8; format: binding; conditions: MicroCal PEAQ-ITC, PBS pH 7.4, 1 mM TCEP, 25 °C; peptide injected 18 x 2 μl into LC8
Protocol: (§1) LC8 and MBP-fused LCA5 constructs were prepared in PBS supplemented with 1 mM TCEP. Before measurement, protein samples were dialyzed overnight in PBS pH 7.4 (Orange Scientific, OrDial D14 membrane). Peptides were diluted from stock with the buffer used for dialysis. The concentration of samples was determined based on absorbance at 280 nm in the case of proteins, and 205 nm for the peptide. Experiments were performed using MicroCal PEAQ-ITC (Malvern Panalytical), LCA5 peptides were measured at 25 °C, proteins were analyzed at 37 °C. Lebercilin peptide was injected into the cell 18 times 2 μl volumes, with 5 min timing between injections. In case of the protein, LCA5 was placed in the sample cell, and LC8 was injected during 37 injections, 1 μl each. The results were evaluated using MicroCal PEAQ-ITC Analysis Software.

LC8 [4] = target: T1, LC8; assay: LC8 binding of the second (CQS) motif at the peptide level; conditions: residues 317–324 of LCA5; method not stated; result in words
Protocol: as §1, with “In case of the protein, LCA5 was placed in the sample cell, and LC8 was injected during 37 injections, 1 μl each.” left out
Fluorescence polarization experiments were carried out at 25 °C in PBS supplemented by 2 mM TCEP and 0.05% Brij using a Synergy H4 (BioTek Instruments) plate reader. […] Briefly, 50 nM labeled BMF peptide was mixed with LC8 in a concentration to achieve 80% saturation, determined by direct titration (12 μM at 80% saturation). Subsequently, the above-mentioned complex was titrated with a two-fold dilution series of competitor LCA5 peptide (DLCTKGVQTME) (start at 500 μM) and the decrease of polarization was recorded. To determine the Kd of the LCA5-peptide-LC8 complex, first the Kd of the BMF-LC8 complex was calculated. […]

GST-fused LC8 = assay: GST pull-down of LC8 and sLCA5; format: binding; conditions: GST-LC8 bait, MBP-, 6x-His-fused sLCA5 prey, PBS, 1 mM DTT, room temperature; result in words
Protocol: For the pull-down experiments, GST-fused LC8 was used as bait, and MBP-, 6x-His-fused LCA5 variants as prey. For controls, GST and MBP were used. Proteins were expressed in 100 ml cultures of E. coli BL21 (DE3) Rosetta cells as described above. Cells were harvested, resuspended in 5 ml PBS supplemented with 1 mg/ml lysozyme and 1 mM DTT, sonicated and clarified by centrifugation. 20 μl of Glutathione Sepharose 4B (Macherey–Nagel) (75%) resin was used for each experiment. Baits were incubated with the resin for 1 h at room temperature, then washed with PBS supplemented with 1 mM DTT. Prey proteins were added and incubated for one hour. The beads were washed and eluted by boiling in a 2 × SDS sample buffer and analyzed in tricine SDS page according to the protocol of Schagger et al[43].

T1 sequence (Q96FJ2 whole entry): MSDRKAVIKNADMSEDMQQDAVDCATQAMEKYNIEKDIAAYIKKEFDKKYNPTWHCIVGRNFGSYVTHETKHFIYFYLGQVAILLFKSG

Q: For TSQEDKATQTL [BMF], which “LC8 concentration at 80% saturation of labeled BMF peptide” value (LC8 [1]) is on record?
A: The value was 12 µM.

Q: For “WDR34-WDR60: known LC8 binding partner, literature”, which “Number of monomeric LC8 in complex” value (LC8 [2]; composition of complexes) is on record?
A: Its value is 6.

Q: What about the “Number of monomeric binding partners in complex” value (LC8 [2]; composition of complexes) of the same substance?
A: Its value is 1+1.

Q: What about the LC8 binding sites (LC8 [2]) of the same substance?
A: The LC8 binding sites was 3.

Q: With DLCTKGVQTME [LCA5 peptide] as the substance, how does the Kd (LC8 [3]) read?
A: The Kd was 2.6 µM.

Q: For KNAACQSD, which “binding of the second motif to LC8 at the peptide level” value (LC8 [4]) is on record?
A: Its value is “could not be verified at the peptide level”.

Q: Which “interaction with LC8 (GST pull-down)” value (GST-fused LC8) does the source give for “CAAAAAAM: sLCA5 with further alanine mutations introduced into the VQT motif” here?
A: Its value is “persisted despite the mutations”.
